# Laboratory results taken from the supplement of paper PMC10307832.
# Columns and labels:
# Assay in all cases: relative viability (nuclei count vs DMSO), 5 days (fraction); higher = more cells survive
# Sulindac + Lapatinib = compound: CC1=C(CC(=O)O)c2cc(F)ccc2/C1=C\c1ccc([S+](C)[O-])cc1 [Sulindac] + CS(=O)(=O)CCNCc1ccc(-c2ccc3ncnc(Nc4ccc(OCc5cccc(F)c5)c(Cl)c4)c3c2)o1 [Lapatinib] (partner 2 µM)
# Method in brief: (§1)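 Values are medians from duplicate plates. Each reflects relative viability, defined as the nuclei count of treated wells over that of vehicle wells. Lung cancer cell lines in 1536-well plates were pin-tool dosed one day after seeding with one drug alone or with a fixed anchor-drug dose plus five library-drug doses (not always all listed) in √10 steps, then fixed, stained and imaged at 4× after 5 days.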
# Staurosporine + Olaparib = compound: CN[C@@H]1C[C@H]2O[C@@](C)([C@@H]1OC)n1c3ccccc3c3c4c(c5c6ccccc6n2c5c31)C(=O)NC4 [Staurosporine] + O=C(c1cc(Cc2n[nH]c(=O)c3ccccc23)ccc1F)N1CCN(C(=O)C2CC2)CC1 [Olaparib] (partner 8 µM)
# Method in brief: as §1
# [1] = compound: O=c1[nH]cc(F)c(=O)[nH]1 [5-Fluorouracil] + Nc1nc2[nH]cc(CCc3ccc(C(=O)N[C@@H](CCC(=O)O)C(=O)O)cc3)c2c(=O)[nH]1 [Pemetrexed] (partner 0.2 µM)
# Method in brief: as §1
# [2] = compound: O=c1[nH]cc(F)c(=O)[nH]1 [5-Fluorouracil] + Cc1nc(Nc2ncc(C(=O)Nc3c(C)cccc3Cl)s2)cc(N2CCN(CCO)CC2)n1 [Dasatinib] (partner 0.075 µM)
# Method in brief: as §1
cell line,measurement,setting,value
UMC-11,relative viability,Sulindac + Lapatinib; first compound 0.08 µM,1.16
same,relative viability,Sulindac + Lapatinib; first compound 0.253 µM,1.12
same,relative viability,Sulindac + Lapatinib; first compound 0.8 µM,0.758
same,relative viability,Sulindac + Lapatinib; first compound 2.53 µM,0.946
same,relative viability,Sulindac + Lapatinib; first compound 8 µM,1.15
same,relative viability,Staurosporine + Olaparib; first compound 0.005 µM,0.375
same,relative viability,Staurosporine + Olaparib; first compound 0.01581 µM,0.212
same,relative viability,Staurosporine + Olaparib; first compound 0.05 µM,0.154
same,relative viability,Staurosporine + Olaparib; first compound 0.1581 µM,0.0879
same,relative viability,Staurosporine + Olaparib; first compound 0.5 µM,0.0921
same,relative viability,[1]; first compound 0.02 µM,0.807
same,relative viability,[1]; first compound 0.2 µM,0.563
same,relative viability,[1]; first compound 0.6325 µM,0.508
same,relative viability,[2]; first compound 0.02 µM,0.52
same,relative viability,[2]; first compound 0.2 µM,0.467
same,relative viability,[2]; first compound 0.6325 µM,0.438
same,relative viability,[2]; first compound 2 µM,0.358
